Results published in ChEMBL document CHEMBL3616452 (Eur J Med Chem, 2015).
Activity calls are given as the source filed them. No cut-off for these calls is given here.

Columns and labels:
[1] = Antiviral activity against Influenza A virus (A/WSN/1933(H1N1)) assessed as virus-mediated cytopathic effect in MDCK cells after 48 to 72 hrs; format: functional, cell-based
Nucleoprotein = Nucleoprotein (Influenza A virus (strain A/Wilson-Smith/1933 H1N1), UniProt P15682); test: Binding affinity to Influenza A virus (A/WSN/1933(H1N1)) nucleoprotein transfected in 293T cells assessed as inhibition of RNA dependent RNA polymerase activity; format: cell-based
Nucleoprotein, sequence (P15682 whole entry): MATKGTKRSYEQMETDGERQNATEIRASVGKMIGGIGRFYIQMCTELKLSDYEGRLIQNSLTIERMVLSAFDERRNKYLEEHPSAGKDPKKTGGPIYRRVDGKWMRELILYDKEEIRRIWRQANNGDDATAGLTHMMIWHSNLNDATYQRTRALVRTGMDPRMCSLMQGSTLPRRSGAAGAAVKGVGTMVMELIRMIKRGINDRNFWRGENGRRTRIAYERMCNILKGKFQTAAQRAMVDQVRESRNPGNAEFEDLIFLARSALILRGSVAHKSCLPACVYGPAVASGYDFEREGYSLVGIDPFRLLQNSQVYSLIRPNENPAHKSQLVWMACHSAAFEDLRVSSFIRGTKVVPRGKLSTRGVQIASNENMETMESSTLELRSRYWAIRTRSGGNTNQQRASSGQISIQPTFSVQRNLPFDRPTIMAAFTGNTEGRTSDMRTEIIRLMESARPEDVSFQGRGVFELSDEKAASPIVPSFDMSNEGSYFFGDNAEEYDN

MDCK [2] = test: Inhibition of nucleoprotein synthesis in Influenza A virus (A/WSN/1933(H1N1)) infected in MDCK cells at 0.3 and 1 uM dosed > 0.5 hrs post infection by fluorescence analysis; format: functional, organism-based
MDCK [3] = test: Inhibition of nucleoprotein synthesis in Influenza A virus (A/WSN/1933(H1N1)) infected in MDCK cells at 1.0 uM dosed 0.5 hrs post infection by fluorescence analysis; format: functional, organism-based
MDCK [4] = test: Inhibition of nucleoprotein synthesis in Influenza A virus (A/WSN/1933(H1N1)) infected in MDCK cells by fluorescence analysis; format: functional, cell-based
MDCK [5] = test: Antiviral activity against wild-type Influenza A virus (A/WSN/1933(H1N1)) assessed as virus-mediated cytopathic effect in MDCK cells at 0.3 uM; format: functional, cell-based
MDCK [6] = test: Inhibition of nucleoprotein synthesis in Influenza A virus (A/WSN/1933(H1N1)) infected in MDCK cells at 0.3 uM dosed 0.5 hrs post infection by fluorescence analysis; format: functional, organism-based
MDCK [7] = test: Inhibition of nucleoprotein synthesis in Influenza A virus (A/WSN/1933(H1N1)) infected in MDCK cells at 3.0 uM by immunofluorescence assay; format: functional, cell-based
MDCK [8] = test: Inhibition of nucleoprotein synthesis in Influenza A virus (A/WSN/1933(H1N1)) infected in MDCK cells at 10.0 uM dosed post-infection by fluorescence analysis; format: functional, organism-based
MDCK [9] = test: Inhibition of nucleoprotein synthesis in Influenza A virus (A/WSN/1933(H1N1)) infected in MDCK cells at 15.0 uM by immunofluorescence assay; format: functional, cell-based
[10] = Antiviral activity against wild-type Influenza A virus (A/WSN/1933(H1N1)) assessed as virus-mediated cytopathic effect in MDCK cells; format: functional, cell-based

Structure (SMILES): Cn1c(=O)c2c(-c3ccccc3)n3c(c2n(C)c1=O)C(C1CCCC1)OCC3 (centres undefined)
- EC50 [1]: > 50 µM

Structure (SMILES): Cn1c(=O)c2c(-c3ccccc3)n3c(c2n(C)c1=O)C(c1ccccc1)OCC3 (centres undefined)
- EC50 [1]: > 50 µM

Structure (SMILES): Cn1c(=O)c2c(-c3ccccc3)n3c(c2n(C)c1=O)C(c1ccc(C(F)(F)F)cc1)OCC3(C)C (centres undefined)
- EC50 [1]: > 50 µM

Structure (SMILES): Cn1c(=O)c2c(-c3ccccc3)n3c(c2n(C)c1=O)C(c1ccccc1)OCC3(C)C (centres undefined)
- EC50 [1]: 5.4 µM

Structure (SMILES): CCCC1OCCn2c(-c3ccccc3)c3c(=O)n(C)c(=O)n(C)c3c21 (centres undefined)
- EC50 [1]: > 50 µM

Structure (SMILES): Cn1c(=O)c2c(-c3ccccc3)n3c(c2n(C)c1=O)C(c1ccc(Br)o1)OCC3 (centres undefined)
- EC50 [1]: > 50 µM

Structure (SMILES): Cn1c(=O)c2c(-c3ccccc3)n3c(c2n(C)c1=O)C(C1CCCCC1)OCC3 (centres undefined)
- EC50 [1]: > 50 µM

Structure (SMILES): Cn1c(=O)c2c(-c3ccccc3)n3c(c2n(C)c1=O)C(c1ccccc1Cl)OCC3 (centres undefined)
- EC50 [1]: > 50 µM

Structure (SMILES): Cn1c(=O)c2c(-c3ccccc3)n3c(c2n(C)c1=O)C(c1ccccc1Cl)OCC3(C)C (centres undefined)
- EC50 [1]: 8 µM

Structure (SMILES): Cn1c(=O)c2c(-c3ccccc3)n3c(c2n(C)c1=O)C(c1ccccc1F)OCC3 (centres undefined)
- EC50 [1]: > 50 µM

Structure (SMILES): CCCn1c(=O)c2c(-c3ccccc3)n3c(c2n(CCC)c1=O)C(C1CCCCC1)OCC3 (centres undefined)
- EC50 [1]: > 50 µM

Structure (SMILES): Cn1c(=O)c2c(-c3ccccc3)n3c(c2n(C)c1=O)C(c1cccs1)OCC3 (centres undefined)
- EC50 [1]: > 50 µM

Structure (SMILES): Cn1c(=O)c2c(-c3ccccc3)n3c(c2n(C)c1=O)C(c1ccco1)OCC3 (centres undefined)
- EC50 [1]: > 50 µM

Structure (SMILES): Cc1onc(-c2ccccc2Cl)c1C(=O)N1CCN(c2ccc([N+](=O)[O-])cc2)CC1
- IC50 (Nucleoprotein): 0.23 µM
- inhibition (MDCK [2]): inactive
- inhibition (MDCK [3]): Active
- inhibition (MDCK [4]): Active
- Activity (MDCK [5]): Active
- inhibition (MDCK [6]): Active

Structure (SMILES): Cn1c(=O)c2c(-c3ccccc3)n3c(c2n(C)c1=O)C(c1ccccc1F)OCC3(C)C (centres undefined)
- IC50 (Nucleoprotein): 4.9 µM
- inhibition (MDCK [7]): inactive
- inhibition (MDCK [4]; TDE = time-dependent effect): tde
- inhibition (MDCK [8]): Active
- EC50 [1]: 1 µM
- inhibition (MDCK [9]): Active
- EC50 [10]: 2.3 µM

Structure (SMILES): Cn1c(=O)c2c(-c3ccccc3)n3c(c2n(C)c1=O)C(c1cccs1)OCC3(C)C (centres undefined)
- EC50 [1]: 6.8 µM

Structure (SMILES): Cn1c(=O)c2c(-c3ccccc3)n3c(c2n(C)c1=O)C(C1CCCCC1)OCC3(C)C (centres undefined)
- EC50 [1]: > 50 µM

Structure (SMILES): COc1ccc(C2OCC(C)(C)n3c(-c4ccccc4)c4c(=O)n(C)c(=O)n(C)c4c32)cc1 (centres undefined)
- EC50 [1]: > 50 µM
